Experiment [1] has as its system THP-1 cells. Put plainly: LPS-stimulated THP-1 cells, cytokine secretion (ELISA). The experiment is classed as cell-based, human. To be noted: JSH-23 50 μM, Exo-srIκB 5×10^6 particles. The protocol: (A) HEK293-NF-κB-luciferase cells (2×10^4 cells) were cultured either with Exo-Naïve or with Exo-srIκB 2×10^5 particles. After 24 h, the cells were treated with 0.5 ng/ml TNF-α for an additional 18 h. Luciferase activities were measured and normalized. (B) Exo-srIκB dose-dependently repressed NF-κB activation in NF-κB-luciferase cells. (C) THP-1 cells (5×10^5 cells) were stimulated with […] LPS and then treated with Exo-srIκBs 5×10^6 particles. The supernatants were collected and assayed for the production of TNF-α and monocyte chemoattractant protein (MCP)-1. […] Cells were harvested into a single-cell suspension and assessed through flow cytometry using specific phycoerythrin (PE)-conjugated antibodies against human intercellular cell adhesion molecule (ICAM)-1.
The TNF-α, IL-8 and MCP-1 levels in supernatants collected from THP-1 and HUVEC cultures were measured using commercial ELISA kits (R&D Systems, Minneapolis, MN, USA), and NF-κB activity in HUVECs was measured using the Trans AM NF-κB p65 kit (Active Motif, Carlsbad, CA, USA). TNF-α, CCL-4/macrophage inflammatory protein (MIP)-1β, IL-6, and IL-1β levels in mouse plasma collected through cardiac puncture at the indicated time points after the high-grade CLP procedure were measured using the Mouse Magnetic Luminex eScreening Assay kit (R&D Systems). […]

For experiment [2], the system named is experimental ischemic AKI model. To be noted: by lowering inflammatory cytokine expression and macrophages/monocyte accumulation; cited from earlier work.
Experiment [3] has as its system lung IRI model. As to conditions: decreases neutrophil infiltration and pulmonary edema; cited from earlier work.

For `Cc1ccc(NCCCc2ccccc2)c(N)c1` [JSH-23], the “inhibiting LPS-induced NF-κB activation and cytokine production: Exo-srIκB versus JSH-23” value in experiment [1] is “comparable effects”. With infliximab: anti-TNF-α agent, the “effect in the experimental ischemic AKI model” value in experiment [2] is “protective effects”.

B1: srIκB: non-degradable IκBα protein with mutations at serine residues 32 and 36 (protein, listed as Homo sapiens)
chain: MFQAAERPQEWAMEGPRDGLKKERLLDDRHDAGLDAMKDEEYEQMVKELQEIRLEPQEVPRGSEPWKQQLTEDGDSFLHLAIIHEEKALTMEVIRQVKGDLAFLNFQNNLQQTPLHLAVITNQPEIAEALLGAGCDPELRDFRGNTPLHLACEQGCLASVGVLTQSCTTPHLHSILKATNYNGHTCLHLASIHGYLGIVELLVSLGADVNAQEPCNGRTALHLAVDLQNPDLVSLLLKCGADVNRVTYQGYSPYQLTWGRPSTRIQQQLGQLTLENLQMLPESEDEESYDTESEFTEFTEDELPYDDCVFGGQRLTL
As to B1, the “effect in the lung IRI model” value in experiment [3] is given as “proven protective effects”.

Values taken from patent US12472228B2, “Use of exosome-based delivery of NF-κB inhibitors” (Ilias Biologics Inc., priority 2020, dated 2025).
